Reference: paper PMC9416741, “New-Generation Heterocyclic Bis-Pentamethinium Salts as Potential Cytostatic Drugs with Dual IL-6R and Mitochondria-Targeting Activity” (Pharmaceutics, 2022)
Counter-ions that a name gives are not always drawn. Like-named read-outs stand apart in the source and are kept apart here. Each block holds one compound with its values, some of them ahead of it.

Key:
[1] = target: T1, IL-6R (IL-6 receptor containing α and β subunits) (Homo sapiens, UniProt P08887+P40189); test: microscale thermophoresis (T-jump); assay type: binding; conditions: read-out: dissociation constant
T1 construct: gene IL6R; commercial IL-6R (Bio-Techne R&D Systems), said to contain alpha and beta subunits
T1 sequence (P08887 20-365 limits assumed): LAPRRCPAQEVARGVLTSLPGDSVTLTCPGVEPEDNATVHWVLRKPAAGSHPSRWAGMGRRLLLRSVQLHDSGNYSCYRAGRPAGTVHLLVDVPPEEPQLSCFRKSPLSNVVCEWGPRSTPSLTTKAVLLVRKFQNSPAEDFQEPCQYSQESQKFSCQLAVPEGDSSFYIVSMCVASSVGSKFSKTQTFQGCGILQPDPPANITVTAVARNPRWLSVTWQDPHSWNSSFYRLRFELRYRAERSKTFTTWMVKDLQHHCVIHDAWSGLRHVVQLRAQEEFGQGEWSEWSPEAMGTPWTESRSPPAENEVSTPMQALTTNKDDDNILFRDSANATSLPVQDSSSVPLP
T1 sequence (P40189 23-619 limits assumed): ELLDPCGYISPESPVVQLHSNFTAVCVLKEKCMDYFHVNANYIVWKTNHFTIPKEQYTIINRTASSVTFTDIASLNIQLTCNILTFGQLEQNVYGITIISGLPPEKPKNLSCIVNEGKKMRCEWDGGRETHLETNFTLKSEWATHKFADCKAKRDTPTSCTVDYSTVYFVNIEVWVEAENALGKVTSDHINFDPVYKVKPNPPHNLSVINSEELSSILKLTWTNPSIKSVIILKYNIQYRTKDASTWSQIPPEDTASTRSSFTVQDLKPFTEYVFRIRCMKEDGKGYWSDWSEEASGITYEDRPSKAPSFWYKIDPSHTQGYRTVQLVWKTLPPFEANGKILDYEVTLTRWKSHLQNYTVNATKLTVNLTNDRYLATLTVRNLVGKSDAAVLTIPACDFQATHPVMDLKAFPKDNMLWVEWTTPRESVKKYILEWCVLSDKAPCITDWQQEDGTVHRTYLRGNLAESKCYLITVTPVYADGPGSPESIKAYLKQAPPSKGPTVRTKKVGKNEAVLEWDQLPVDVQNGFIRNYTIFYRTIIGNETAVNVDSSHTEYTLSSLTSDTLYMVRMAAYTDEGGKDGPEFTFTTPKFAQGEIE

in vitro = test: in vitro; design: MTT metabolic activity assay, absorbance at 570 nm; conditions: human, single replicate
Protocol: (§1) A colorimetric MTT cell metabolic activity assay was used to determine the cytotoxicity of Bis-PMSs 5 and 6. For these experiments, the HF-P4, BJ-hTERT, BLM, A-2058, U-2 OS, H1299 and BT-20 cells were cultured under standard conditions (37 °C, humidified atmosphere with 5% CO2 in air) in culture medium (DMEM, RPMI-1640, McCoy’s or EMEM with 10% FBS). Cells were plated in 96-well plates at a density of 5000 cells per well and grown for 24 h. The medium was then replaced with a medium containing Bis-PMSs 5 and 6, and cells were cultured for an additional 48 h. Afterwards, the medium was exchanged for medium with the MTT yellow tetrazolium dye (3-(4,5-dimethylthiazol-2-yl)-2,5-diphenyltetrazolium bromide, Sigma-Aldrich) and incubated for 2 h at 37 °C. After that, the yellow tetrazole dye was removed and DMSO was used to dissolve the reduced purple formazan formed in living cells. The absorbance of the converted dye was measured at a wavelength of 570 nm with the reference of 630 nm using a SpectraMax ABS Plus microplate reader (Molecular Devices). Experiments were performed in quadruplicate and repeated three times with similar results. In U251MG and GL261 cells, an assay assessing cell growth independent of mitochondrial respiration was used. Cells were plated in 96-well plates at a density of 5000 cells per well and grown for 24 h under standard conditions in culture medium (DMEM and RPMI-1640 with 10% FBS for U251MG and Gl261 cells, respectively). The medium was then replaced by that supplemented with Bis-PMSs 5 and 6. After 72 h of exposure, surviving cells were fixed and stained with [compound left out] blue (5 g/L in 50%, v/v, ethanol) and lysed with 1% sodium dodecyl sulfate, and the relative cell number was determined by reading absorbance at 630 nm using a 96-well plate reader (Sunrise; Tecan, Männedorf, Switzerland). The cell inhibitory concentration (IC) was calculated using the equation IC = (APMS well/mean Acontrol wells) × 100%. The half-maximal inhibitory concentration (IC50) was calculated from dose–response curves using GraphPad Prism software (v. 8.0.1, La Jolla, CA, USA). The selectivity indexes towards cancer cells were calculated as a ratio of the average of the IC50 values for HF-P4 and BJ-hTERT human fibroblasts and the IC50 value for the corresponding cancer cell line. For U251MG and Gl261 glioblastoma cells, the cytoselectivity was calculated against normal HF P4 fibroblast cells, which were analyzed using the same cytotoxicity assay. The cytotoxic activities of Bis-PMSs 5 and 6 were evaluated in normal (HF-P4 and BJ-hTERT fibroblasts) and malignant (BLM, A-2058, U-2 OS, H1299, BT-20) cells using a conventional MTT viability assay. For the measurements, cells were exposed to 0–10 µM of Bis-PMSs 5 and 6 under standard conditions in a complete cell culture medium and cell viability was measured after 48 h of treatment. In addition, cytotoxicity was tested in U251MG and Gl261 glioma cells using an assay that assesses cell growth independent of mitochondrial respiration (Figures S10 and S11 and Table S3).

BJ-hTERT = test: in vitro; design: MTT metabolic activity assay, absorbance at 570 nm; conditions: single replicate, 48 h
Protocol: as §1

HFP4 = test: in vitro; design: MTT metabolic activity assay, absorbance at 570 nm; conditions: single replicate, 48 h
Protocol: as §1

A2058 = test: cells; design: MTT metabolic activity assay, absorbance at 570 nm; conditions: Homo sapiens, A2058, 48 h, single replicate
Protocol: as §1

BLM = test: cells; design: MTT metabolic activity assay, absorbance at 570 nm; conditions: 48 h, single replicate
Protocol: as §1

BT-20 = test: cells; design: MTT metabolic activity assay, absorbance at 570 nm; conditions: Homo sapiens, BT-20, 48 h, single replicate
Protocol: as §1

H1299 = test: cells; design: MTT metabolic activity assay, absorbance at 570 nm; conditions: Homo sapiens, NCI-H1299, 48 h, single replicate
Protocol: as §1

U2-OS = test: cells; design: MTT metabolic activity assay, absorbance at 570 nm; conditions: Homo sapiens, U2OS, 48 h, single replicate
Protocol: as §1

Gl261 = test: cells; design: Cell growth by dye staining of fixed cells, absorbance at 630 nm, independent of mitochondrial respiration; conditions: Mus musculus, GL261, 72 h, single replicate
Protocol: as §1

U251 = test: cells; design: Cell growth by dye staining of fixed cells, absorbance at 630 nm, independent of mitochondrial respiration; conditions: Homo sapiens, U-251, 72 h, single replicate
Protocol: as §1

IL-6R (Homo sapiens) = IL-6R (Homo sapiens) (UniProt P08887); conditions: cited from earlier work
[2] = replicate 3, read-out: Bis-PMS 5 (IC50 / µM)
[3] = replicate 1, read-out: Bis-PMS 5 (IC50 / µM)
[4] = replicate 2, read-out: Bis-PMS 5 (IC50 / µM)
[5] = replicate 2, read-out: Bis-PMS 6 (IC50 / µM)
[6] = replicate 3, read-out: Bis-PMS 6 (IC50 / µM)
[7] = replicate 1, read-out: Bis-PMS 6 (IC50 / µM)

Kd [1]: 26.5 ± 2.5 nM | IC50 (BT-20; [3]): 0.832 µM | IC50 (BT-20; [4]): 0.38 µM | IC50 (BT-20; [2]): 0.891 µM | IC50 (H1299; [3]): 2.69 µM | IC50 (H1299; [4]): 2.82 µM | IC50 (U2-OS; [3]): 0.562 µM | IC50 (U2-OS; [4]): 0.631 µM | IC50 (U2-OS; [2]): 0.295 µM | IC50 (U251; [3]): 0.501 µM | IC50 (U251; [4]): 0.938 µM
Compound: CN1C(=CC=C(C=CC2=[N+](C)c3ccccc3C2(C)C)c2ccc(C(C=CC3=[N+](C)c4ccccc4C3(C)C)=CC=C3N(C)c4ccccc4C3(C)C)cc2)C(C)(C)c2ccccc21 [compound 5, p-bis-pentamethinium salt 5]
CC50 at 48 h (in vitro; bj-htert cells, Bis-PMS 5 (IC50 / µM), replicate 2): 1.7 µM | CC50 (BJ-hTERT; [2]): 1.62 µM | CC50 (HFP4; [3]): 1.78 µM | CC50 (HFP4; [4]): 0.427 µM | CC50 (HFP4; [2]): 0.757 µM | IC50 (A2058; [4]): 0.396 µM | IC50 (A2058; [2]): 0.178 µM | IC50 (BLM; [3]): 0.417 µM | IC50 (BLM; [2]): 0.183 µM | IC50 (Gl261; [3]): 0.9 µM | IC50 (Gl261; [4]): 1.04 µM

Kd [1]: 304 ± 27.6 nM | IC50 (BT-20; [7]): 0.724 µM | IC50 (BT-20; [5]): 0.617 µM | IC50 (BT-20; [6]): 0.997 µM | IC50 (H1299; [5]): 0.199 µM | IC50 (H1299; [6]): 0.138 µM | IC50 (U2-OS; [7]): 0.257 µM | IC50 (U2-OS; [5]): 0.347 µM | IC50 (U2-OS; [6]): 0.123 µM | IC50 (U251; [7]): 0.485 µM | IC50 (U251; [5]): 0.526 µM
Compound: CN1C(=CC=C(C=CC2=[N+](C)c3ccccc3C2(C)C)c2cccc(C(C=CC3=[N+](C)c4ccccc4C3(C)C)=CC=C3N(C)c4ccccc4C3(C)C)c2)C(C)(C)c2ccccc21 [compound 6, m-bis-pentamethinium salt 6]
CC50 at 48 h (in vitro; hf-p4 cells, Bis-PMS 6 (IC50 / µM), replicate 1): 1.05 µM | CC50 (BJ-hTERT; [5]): 1.66 µM | CC50 (BJ-hTERT; [6]): 0.776 µM | CC50 (HFP4; [6]): 1.95 µM | IC50 (A2058; [7]): 0.191 µM | IC50 (A2058; [5]): 1.07 µM | IC50 (A2058; [6]): 0.646 µM | IC50 (BLM; [7]): 0.933 µM | IC50 (BLM; [6]): 1.91 µM | IC50 (Gl261; [7]): 0.218 µM | IC50 (Gl261; [5]): 0.319 µM

Compound: tocilizumab
Kd (IL-6R (Homo sapiens)): 2.54 nM
